Experimental data published in patent US20190112580A1, “METHODS FOR TREATING CO[…] AND RELATED CULTURED CELLS” (priority 2017, published 2019).

Tested on: CP myoblast cultures
Test: Real-time qPCR gene expression profiling in fusing CP myoblasts
Type: cell-based, human
Set-up: key to JAG2 Expression / ATP2A1 Expression / DLL1 Expression / MYF5 Expression / ATP2A2 Expression / JAG1 Expression / SIX1 Expression / MYH7 Expression / CDKN1A Expression / NRG1 Expression / DLK1 Expression: relative expression vs non-treated; ≥2 up, ≤0.5 down
Experimental: To investigate whether additional signaling pathways and genes were affected by 5-AZA treatment, real-time qPCR was used to analyze the expression of 91 genes involved in myogenesis, neurogenesis and adipogenesis in fusing CP myoblasts after 24 hours of pretreatment with 5 μM of 5-AZA (Supp. Table 2A). […] Also, 5-AZA pretreatment led to upregulation of transcription regulators involved in myogenesis and other signaling pathways (BMI1, SIX1, SIX4, EGR3, FOXO1, MAPK14, MEF2A, MEF2C, MYF5, MYOG, NEUROD2, NOTCH2, PAX3, PAX7, PPARA, PPARD, PPARG, RPBJ, RARA). […] Impairment in other signaling pathways involved in myoblast fusion and myotube formation (e.g., TMEM8C/Myomaker, Rho GTPases, MAPKs, Calcineurin-NFATc2, NF-KB, WNT, MMPs) may also contribute to the decrease in myogenic potential of CP myoblasts.
Myoblasts, treated or non-treated with 5 μM 5-AZA for 24 hours, were cultured in high serum medium until they reached 80-90% confluence. After switch to low-serum medium, myoblast preparations were allowed to differentiate for 24-72 hours before RNA extraction. Total RNA was isolated and purified from myoblast cell culture preparations using Trizol reagent (Ambion—Life Technologies) according to manufacturer's recommendations. First-strand cDNA synthesis from purified RNAs and qPCR amplification was performed using the GoTaq 2-Step RT-qPCR System kit (Promega) according to manufacturer's protocols. Resulting cDNAs were subjected to SYBR Green-based real-time amplification using a C1000 Thermal Cycler apparatus (Bio-Rad). Each PCR amplification reaction (20 μl volume) contained 100 ng of starting cDNA template and primers amplifying a specific gene. Gene expression profiling during myoblast differentiation was investigated using predesigned 96-well gene panels for use with SYBR Green (SABioscience) (Tables 1A and 2A).
The predesigned 96-well gene panels utilized expertly designed and experimentally validated PCR primers and assays and included 3 reference genes for relative gene expression normalization and quantification: HPRT1, TBP and AP3DI. These reference genes were specifically validated for our experimental treatment and conditions and were selected among 15 experimentally tested candidates and analyzed using the software packages Bestkeeper, geNorm and Normfinder. Cycling conditions for SYBR Green primers consisted of an initial step at 50° C. (2 minutes) and a first denaturizing step at 95° C. (2 minutes), followed by 50 cycles of a thermal step protocol consisting of 95° C. (20 seconds), 60° C. (20 seconds) and 72° C. (20 seconds). A standard melt curve profiling consisting of a 65-95° C. thermal ramp was performed at the end of each protocol. Gene expression quantification was performed using Bio-Rad CFX Manager software. Positively and negatively regulated genes were selected following a P<0.05 and a 2 or 0.5 expression level respectively. Functional gene classification was performed using The Database for Annotation, Visualization and Integrated Discovery (DAVID) v6.8 (at <https://david.ncifcrf.gov/>).

[1] = 5 μM 24 hours pretreatment vs non-treated CP, 48-72 hours of differentiation
[2] = gene ACTA1, 5 μM 24 h pretreatment vs non-treated CP
[3] = gene ACTG1, 5 μM 24 h pretreatment vs non-treated CP
[4] = gene ACTN2, 5 μM 24 h pretreatment vs non-treated CP
[5] = gene ATP2A1, 5 μM 24 h pretreatment vs non-treated CP
[6] = gene ATP2A2, 5 μM 24 h pretreatment vs non-treated CP
[7] = gene BCL2, 5 μM 24 h pretreatment vs non-treated CP
[8] = gene BMI1, 5 μM 24 h pretreatment vs non-treated CP
[9] = gene CAV3, 5 μM 24 h pretreatment vs non-treated CP
[10] = gene CDKN1A, 5 μM 24 h pretreatment vs non-treated CP
[11] = gene DES, 5 μM 24 h pretreatment vs non-treated CP
[12] = gene DLK1, 5 μM 24 h pretreatment vs non-treated CP
[13] = gene DLL1, 5 μM 24 h pretreatment vs non-treated CP
[14] = gene EGR3, 5 μM 24 h pretreatment vs non-treated CP
[15] = gene FHL2, 5 μM 24 h pretreatment vs non-treated CP
[16] = gene FOXO1, 5 μM 24 h pretreatment vs non-treated CP
[17] = gene ITGA7, 5 μM 24 h pretreatment vs non-treated CP
[18] = gene ITGB1, 5 μM 24 h pretreatment vs non-treated CP
[19] = gene JAG1, 5 μM 24 h pretreatment vs non-treated CP
[20] = gene JAG2, 5 μM 24 h pretreatment vs non-treated CP
[21] = gene LRP4, 5 μM 24 h pretreatment vs non-treated CP
[22] = gene MAPK14, 5 μM 24 h pretreatment vs non-treated CP
[23] = gene MEF2A, 5 μM 24 h pretreatment vs non-treated CP
[24] = gene MEF2C, 5 μM 24 h pretreatment vs non-treated CP
[25] = gene MET, 5 μM 24 h pretreatment vs non-treated CP
[26] = gene MYF5, 5 μM 24 h pretreatment vs non-treated CP
[27] = gene MYF6, 5 μM 24 h pretreatment vs non-treated CP
[28] = gene MYH2, 5 μM 24 h pretreatment vs non-treated CP
[29] = gene MYH3, 5 μM 24 h pretreatment vs non-treated CP
[30] = gene MYH7, 5 μM 24 h pretreatment vs non-treated CP
[31] = gene MYH8, 5 μM 24 h pretreatment vs non-treated CP
[32] = gene MYH9, 5 μM 24 h pretreatment vs non-treated CP
[33] = gene MYOG, 5 μM 24 h pretreatment vs non-treated CP
[34] = gene NCAM1, 5 μM 24 h pretreatment vs non-treated CP
[35] = gene NEUROD2, 5 μM 24 h pretreatment vs non-treated CP
[36] = gene NOTCH2, 5 μM 24 h pretreatment vs non-treated CP
[37] = gene NRG1, 5 μM 24 h pretreatment vs non-treated CP
[38] = gene PAK1, 5 μM 24 h pretreatment vs non-treated CP
[39] = gene PAX3, 5 μM 24 h pretreatment vs non-treated CP
[40] = gene PAX7, 5 μM 24 h pretreatment vs non-treated CP
[41] = gene PDGFRA, 5 μM 24 h pretreatment vs non-treated CP
[42] = gene PDGFRB, 5 μM 24 h pretreatment vs non-treated CP
[43] = gene PPARA, 5 μM 24 h pretreatment vs non-treated CP
[44] = gene PPARD, 5 μM 24 h pretreatment vs non-treated CP
[45] = gene PPARG, 5 μM 24 h pretreatment vs non-treated CP
[46] = gene RARA, 5 μM 24 h pretreatment vs non-treated CP
[47] = gene RBPJ, 5 μM 24 h pretreatment vs non-treated CP
[48] = gene SHH, 5 μM 24 h pretreatment vs non-treated CP
[49] = gene SIX1, 5 μM 24 h pretreatment vs non-treated CP
[50] = gene SIX4, 5 μM 24 h pretreatment vs non-treated CP
[51] = gene TMEM8C, 5 μM 24 h pretreatment vs non-treated CP

SMILES: Nc1ncn([C@@H]2O[C@H](CO)[C@@H](O)[C@H]2O)c(=O)n1 [5-AZA, 5-azacytidine]
- genes significantly downregulated (of 91 genes) [1]: 7 genes
- genes significantly upregulated (of 91 genes) [1]: 43 genes
- ACTA1 Expression [2]: 5.23
- ACTA1 Regulation [2]: 5.2
- ACTG1 Expression [3]: 0.09
- ACTG1 Regulation [3]: −10.7
- ACTN2 Expression [4]: 5.96
- ACTN2 Regulation [4]: 6.0
- ATP2A1 Expression [5]: 7.87
- ATP2A1 Regulation [5]: 7.9
- ATP2A2 Expression [6]: 3.26
- ATP2A2 Regulation [6]: 3.3
- BCL2 Expression [7]: 5.33
- BCL2 Regulation [7]: 5.3
- BMI1 Expression [8]: 2.97
- BMI1 Regulation [8]: 3.0
- CAV3 Expression [9]: 2.92
- CAV3 Regulation [9]: 2.9
- CDKN1A Expression [10]: 0.23
- CDKN1A Regulation [10]: −4.4
- DES Expression [11]: 6.23
- DES Regulation [11]: 6.2
- DLK1 Expression [12]: 16.51
- DLK1 Regulation [12]: 16.5
- DLL1 Expression [13]: 7.05
- DLL1 Regulation [13]: 7.0
- EGR3 Expression [14]: 14.93
- EGR3 Regulation [14]: 14.9
- FHL2 Expression [15]: 0.45
- FHL2 Regulation [15]: −2.2
- FOXO1 Expression [16]: 7.30
- FOXO1 Regulation [16]: 7.3
- ITGA7 Expression [17]: 4.22
- ITGA7 Regulation [17]: 4.2
- ITGB1 Expression [18]: 2.11
- ITGB1 Regulation [18]: 2.1
- JAG1 Expression [19]: 2.61
- JAG1 Regulation [19]: 2.6
- JAG2 Expression [20]: 10.19
- JAG2 Regulation [20]: 10.2
- LRP4 Expression [21]: 3.01
- LRP4 Regulation [21]: 3.0
- MAPK14 Expression [22]: 2.84
- MAPK14 Regulation [22]: 2.8
- MEF2A Expression [23]: 10.08
- MEF2A Regulation [23]: 10.1
- MEF2C Expression [24]: 5.79
- MEF2C Regulation [24]: 5.8
- MET Expression [25]: 2.07
- MET Regulation [25]: 2.1
- MYF5 Expression [26]: 6.99
- MYF5 Regulation [26]: 7.0
- MYF6 Expression [27]: 3.77
- MYF6 Regulation [27]: 3.8
- MYH2 Expression [28]: 6.99
- MYH2 Regulation [28]: 7.0
- MYH3 Expression [29]: 6.74
- MYH3 Regulation [29]: 6.7
- MYH7 Expression [30]: 2.15
- MYH7 Regulation [30]: 2.1
- MYH8 Expression [31]: 2.51
- MYH8 Regulation [31]: 2.5
- MYH9 Expression [32]: 0.17
- MYH9 Regulation [32]: −5.8
- MYOG Expression [33]: 7.72
- MYOG Regulation [33]: 7.7
- NCAM1 Expression [34]: 6.55
- NCAM1 Regulation [34]: 6.6
- NEUROD2 Expression [35]: 56.33
- NEUROD2 Regulation [35]: 56.3
- NOTCH2 Expression [36]: 3.12
- NOTCH2 Regulation [36]: 3.1
- NRG1 Expression [37]: 0.47
- NRG1 Regulation [37]: −2.1
- PAK1 Expression [38]: 4.49
- PAK1 Regulation [38]: 4.5
- PAX3 Expression [39]: 12.50
- PAX3 Regulation [39]: 12.5
- PAX7 Expression [40]: 2.88
- PAX7 Regulation [40]: 2.9
- PDGFRA Expression [41]: 0.38
- PDGFRA Regulation [41]: −2.6
- PDGFRB Expression [42]: 0.34
- PDGFRB Regulation [42]: −2.9
- PPARA Expression [43]: 2.69
- PPARA Regulation [43]: 2.7
- PPARD Expression [44]: 3.55
- PPARD Regulation [44]: 3.6
- PPARG Expression [45]: 24.42
- PPARG Regulation [45]: 24.4
- RARA Expression [46]: 2.19
- RARA Regulation [46]: 2.2
- RBPJ Expression [47]: 3.84
- RBPJ Regulation [47]: 3.8
- SHH Expression [48]: 23.75
- SHH Regulation [48]: 23.8
- SIX1 Expression [49]: 2.21
- SIX1 Regulation [49]: 2.2
- SIX4 Expression [50]: 3.20
- SIX4 Regulation [50]: 3.2
- TMEM8C Expression [51]: 3.59
- TMEM8C Regulation [51]: 3.6
